Consider seven molecules from patent publication US11865181B2, “Peptidic materials that traffic efficiently to the cell cytosol and nucleus” (Yale University, priority 2017, dated 2024).

As usually defined, the EC50 is the concentration needed to bring the measured effect to its halfway point.

Where two headings read alike, the source gives them in different places. Positions of bridges follow the written chain, without caps; N, C: chain ends. Non-standard residues stand in square brackets, D forms with d. Residues, ends and D or L forms follow the SMILES beside them. R8 = C=CCCCCCC[C@@](C)(N)C(=O)O; S5 = C=CCCC[C@](C)(N)C(=O)O

In series [1] the test system is hDM2-overexpressing SJSA-1 cells. It counts as cell-based. As for the experimental part: SJSA-1 cells were seeded into a 96-well plate (2,000 cells/well) and incubated overnight at 37° C. After washing twice in PBS, cells are incubated with peptide or Nutlin-3a (Santa Cruz Biotechnology, Santa Cruz, Calif.) in Opti-MEM (Invitrogen, Carlsbad, Calif.) for 24 hours. Cell viability was then assayed using CellTiter-Glo (Promega, Madison, Wis.) according to the manufacturer's protocol. Luminescence measurements were taken on a SpectraMax M5 plate reader (Molecular Devices, Sunnyvale, Calif.).
Previously it has been shown that the efficacy with which hydrocarbon-stapled peptides reach the cytosol correlates with their efficacy in cell-based assays (LaRochelle et al., J. Am. Chem. Soc., 2015, 137, 2536-2541). To examine whether the biological activity of these penta-arg peptides correlated with how efficiently they accessed the cytosol, cell viability assays were performed using N-acetylated versions of the peptides and hDM2-overexpressing SJSA-1 cells (FIG. 4 and FIG. 5).

The test system is the same in series [2]. The settings on record: literature values (Bernal et al. 2007; 2010); read-out: previously reported EC50, SJSA-1 cell viability; cited from earlier work.
Another series relates to HeLa cells. The note with it: cited from earlier work.

Molecule `CC(=O)N[C@@H](CCCNC(=N)N)C(=O)N[C@@H](CO)C(=O)N[C@@H](CCC(N)=O)C(=O)N[C@@H](CCCNC(=N)N)C(=O)N[C@@H](CCCNC(=N)N)C(=O)N[C@@H](Cc1ccccc1)C(=O)N[C@]1(C)CCCCCCC=CCCC[C@@](C)(C(=O)N[C@@H](CCC(=O)O)C(=O)N[C@@H](CC(N)=O)C(N)=O)NC(=O)[C@H](CC(C)C)NC(=O)[C@H](CC(C)C)NC(=O)[C@H](CCCNC(=N)N)NC(=O)[C@H](Cc2c[nH]c3ccccc23)NC(=O)[C@H](CC(=O)O)NC(=O)[C@H](CCCNC(=N)N)NC1=O` [BP1.2^Ac, Ac-RSQRRFR8RDWRLLS5EN-NH2] (Ac-RSQRRF[R8]RDWRLL[S5]EN-NH2; staple 7-14) gave an EC50 in series [1] (24 h) of 1.9 µM.

Consider `CC(=O)N[C@@H](CCCNC(=N)N)C(=O)N[C@@H](CO)C(=O)N[C@@H](CCC(N)=O)C(=O)N[C@@H](CCC(=O)O)C(=O)N[C@@H](CCCNC(=N)N)C(=O)N[C@@H](Cc1ccccc1)C(=O)N[C@]1(C)CCCCCCC=CCCC[C@@](C)(C(=O)N[C@@H](CCCNC(=N)N)C(=O)N[C@@H](CCCNC(=N)N)C(N)=O)NC(=O)[C@H](CC(C)C)NC(=O)[C@H](CCCNC(=N)N)NC(=O)[C@H](CCCCN)NC(=O)[C@H](Cc2c[nH]c3ccccc23)NC(=O)[C@H](CC(C)C)NC(=O)[C@H](CC(=O)O)NC1=O` [BP1.4^Ac, Ac-RSQERFR8DLWKRLS5RR-NH2] (Ac-RSQERF[R8]DLWKRL[S5]RR-NH2; staple 7-14), for which the EC50 in series [1] (24 h) was found to be 7.7 µM. On the same count and under the same terms, then `CC(=O)N[C@@H](CC(C)C)C(=O)N[C@@H](CCCNC(=N)N)C(=O)N[C@@H](CCCNC(=N)N)C(=O)N[C@@H](CCC(=O)O)C(=O)N[C@H](C(=O)N[C@@H](Cc1ccccc1)C(=O)N[C@]1(C)CCCCCCC=CCCC[C@@](C)(C(=O)N[C@@H](CCCNC(=N)N)C(=O)N[C@@H](CC(N)=O)C(N)=O)NC(=O)[C@H](CC(C)C)NC(=O)[C@H](CCCNC(=N)N)NC(=O)[C@H](CCCCN)NC(=O)[C@H](Cc2c[nH]c3ccccc23)NC(=O)[C@H](CCCNC(=N)N)NC(=O)[C@H](CC(=O)O)NC1=O)[C@@H](C)O` [BP1.5^Ac, Ac-LRRETFR8DRWKRLS5RN-NH2] (Ac-LRRETF[R8]DRWKRL[S5]RN-NH2; staple 7-14), with 7.7 µM. Same read-out and setting: then `CC(=O)N[C@@H](CC(C)C)C(=O)N[C@@H](CO)C(=O)N[C@@H](CCC(N)=O)C(=O)N[C@@H](CCC(=O)O)C(=O)N[C@H](C(=O)N[C@@H](C)C(=O)N[C@]1(C)CCCCCCC=CCCC[C@@](C)(C(=O)N[C@@H](CCCNC(=N)N)C(=O)N[C@@H](CCCNC(=N)N)C(N)=O)NC(=O)[C@H](CC(C)C)NC(=O)[C@H](CCCNC(=N)N)NC(=O)[C@H](CCCNC(=N)N)NC(=O)[C@H](Cc2c[nH]c3ccccc23)NC(=O)[C@H](CC(C)C)NC(=O)[C@H](CCCNC(=N)N)NC1=O)[C@@H](C)O` [BP1.6F19A^Ac, Ac-LSQETAR8RLWRRLS5RR-NH2] (Ac-LSQETA[R8]RLWRRL[S5]RR-NH2; staple 7-14), with 4.8 µM; and `CC(=O)N[C@@H](CC(C)C)C(=O)N[C@@H](CO)C(=O)N[C@@H](CCC(N)=O)C(=O)N[C@@H](CCC(=O)O)C(=O)N[C@H](C(=O)N[C@@H](Cc1ccccc1)C(=O)N[C@]1(C)CCCCCCC=CCCC[C@@](C)(C(=O)N[C@@H](CCCNC(=N)N)C(=O)N[C@@H](CCCNC(=N)N)C(N)=O)NC(=O)[C@H](CC(C)C)NC(=O)[C@H](CCCNC(=N)N)NC(=O)[C@H](CCCNC(=N)N)NC(=O)[C@H](Cc2c[nH]c3ccccc23)NC(=O)[C@H](CC(C)C)NC(=O)[C@H](CCCNC(=N)N)NC1=O)[C@@H](C)O` [BP1.6^Ac, Ac-LSQETFR8RLWRRLS5RR-NH2] (Ac-LSQETF[R8]RLWRRL[S5]RR-NH2; staple 7-14), with 1.9 µM. As for `COc1ccc(C2=N[C@@H](c3ccc(Cl)cc3)[C@@H](c3ccc(Cl)cc3)N2C(=O)N2CCNC(=O)C2)c(OC(C)C)c1` [Nutlin-3a, reference compound], the EC50 is 22.8 µM in series [1] (24 hours in Opti-MEM, N-acetylated peptides, read-out: EC50, decrease in SJSA-1 cell viability) and around 7 µM in series [2]. With “Ac-LSQETFR8DLWKLLS5EN-NH2 (Ac-LSQETF[R8]DLWKLL[S5]EN-NH2; staple 7-14) [SAH-p53-4, N-acetylated SAH-p53-4, reference compound]”, the “ability to breach the plasma membrane as judged by flow cytometry” value in the series with HeLa cells was “fails to effectively breach the plasma membrane”. Besides, the “effect on SJSA-1 cell viability (in words)” value in series [1] (concentrations as high as 60 μM, 24 hours) is listed as “no decrease in viability”.
